Test results reported in patent US8475814B2 (priority 2003, dated 2013).

How the values were obtained:
[1] = Example 1: percutaneous [3H]-4-hydroxy tamoxifen delivery, radioactivity in breast tissue and blood of breast cancer patients; type: in vivo, human
Method: The patients received [^3H]-labeled drug applied directly on the affected breasts at specified intervals ranging from 12 hours to 7 days before surgery to excise diseased tissue. Breast tissue from three regions: the tumor, tissue immediately surrounding the tumor, and normal tissue, was excised and immediately frozen in liquid nitrogen. Additionally, plasma and urine samples were obtained at scheduled intervals and frozen until analysis.

[2] = cited from earlier work
[3] = tested on: p53(−) normal human mammary epithelial cells; settings: cited from earlier work
[4] = tested on: Ki67 antigen (tumor tissue proliferation index); test: Example 4: Ki67 labeling index in breast tumor tissue; type: in vivo, human; settings: for mean Ki-67 LI scores after treatment compared to the untreated group: adjusted for baseline, P=0.0054
Text: Participants in the study were postmenopausal women diagnosed with estrogen receptor positive invasive breast cancer, as determined by Trucut biopsy. Criteria for enrollment included age >50 years, histologically confirmed T1 or T2 estrogen receptor positive primary breast cancer, and fit for surgery within 1 month of the biopsy. Patients with inflammatory cancer, known metastasis or lymph node involvement were excluded as were patients with previous radiotherapy or chemotherapy and ongoing hormone replacement therapy (a minimum washout period of 8 days was observed before the Tru-cut biopsy). Other exclusion criteria were a history of thrombophlebitis requiring anticoagulant treatment, retinopathy, cutaneous allergy to alcohol or mammary dermatitis contraindicating the application of a gel.
Patients were scheduled for tumor resection surgery with curative intent between day 15 and day 22 after the start of treatment. On the day prior to surgery, a blood sample was also obtained for determination of 4-OHT concentrations. […]
Ki67 and Proliferating Cell Nuclear Antigen (PCNA) labeling indices (LI) were assessed on paraffin embedded sections of the pre- and post-treatment tissue specimens. The Ki67 antigen was assessed using the monoclonal antibody MIB 1 (DAKO, Denmark) as used in routine conditions in pathology. […] Six serial sections were analyzed per case in order to standardize sampling. […] For each preparation, optical density (OD) thresholds were determined using real microscopic images of the analyzed field as reference. […] Twenty fields were analyzed for each section. Stained nuclear surface was determined (segmentation and thresholding) and a LI scored (stained cells/counterstained elements). […] Control of immunostaining quantitative analysis and reproducibility of the procedure were performed: —by comparison to iterative measurements done on the same preparations, —by comparison to measurements compiled on six sequential sections of the same specimen. […] Results were expressed as LI.

estrone sulphatase = biological target: T1, estrone sulphatase (Homo sapiens, UniProt P08842); settings: mammary cancer cell lines; cited from earlier work
T1 construct: estrone sulphatase activity in mammary cancer cell lines
T1 sequence (P08842 22-583): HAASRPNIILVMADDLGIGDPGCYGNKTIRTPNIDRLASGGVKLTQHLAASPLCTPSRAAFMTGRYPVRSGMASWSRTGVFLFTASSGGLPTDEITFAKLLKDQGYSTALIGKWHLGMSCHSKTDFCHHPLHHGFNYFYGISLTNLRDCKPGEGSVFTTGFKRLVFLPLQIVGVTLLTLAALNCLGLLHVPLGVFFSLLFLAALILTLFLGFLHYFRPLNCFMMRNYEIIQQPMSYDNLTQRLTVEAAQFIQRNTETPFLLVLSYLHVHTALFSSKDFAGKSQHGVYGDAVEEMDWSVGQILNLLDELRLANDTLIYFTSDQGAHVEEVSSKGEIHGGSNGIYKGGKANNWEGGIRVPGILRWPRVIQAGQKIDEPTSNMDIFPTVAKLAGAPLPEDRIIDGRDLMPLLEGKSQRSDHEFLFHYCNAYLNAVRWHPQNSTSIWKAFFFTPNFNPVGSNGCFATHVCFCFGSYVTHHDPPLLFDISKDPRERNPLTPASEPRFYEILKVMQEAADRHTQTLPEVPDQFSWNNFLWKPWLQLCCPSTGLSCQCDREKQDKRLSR

[5] = Example 4: 4-OHT assay in plasma, tumor tissue and normal tissue (GC-MS NICI); type: in vivo, human; settings: 2-3 weeks
Text: Patients were scheduled for tumor resection surgery with curative intent between day 15 and day 22 after the start of treatment. On the day prior to surgery, a blood sample was also obtained for determination of 4-OHT concentrations. On the day of surgery, patients were reassessed for concomitant therapy, concomitant conditions, hematology, biochemistry, plasma 4-OHT, estrone (E1), and estradiol (E2) concentrations.
Concentrations of 4-OHT in plasma, tumor tissue, and normal tissue were performed using Gas Chromatography (GC) combined with Mass Spectrometry (MS) used in the Negative Ion Chemical Ionization-mode (NICI) (Girault, 1993). The quantification limits of the method were 5 pg/ml for the plasma and 50 pg/g for tissue samples respectively. Tumor extracts and normal breast tissue obtained at the time of surgery (after treatment) were stored in liquid nitrogen until subsequent assay of 4-OHT.

estrogen receptors = settings: in vitro; cited from earlier work
[6] = Example 3: plasma pharmacokinetics of 4-hydroxy tamoxifen gel in healthy premenopausal women; type: in vivo, human; settings: for t1/2 (Range): 57 mg/100 g gel, last administration
Method: Each participant applied the gel daily for the duration of two menstrual cycles.
At the end of a menstrual cycle, each patient received a single dose, after which serial blood samples were collected at 0, 0.5, 1, 1.5, 2, 3, 4, 6, 12, 18, 24, 36, 48, and 72 hours.
On the first day of the following menstruation, treatment, which consisted of daily application of the gel over two menstrual cycles, began. Blood samples were collected 24 hours following the morning application of gel on days 7, 20 and 25 of the first and second cycles. On the last day of administration, day 25 of the second menstrual cycle, serial blood samples were collected prior to application and at 0.5, 1, 1.5, 2, 3, 4, 6, 12, 18, 24, 36, 48, and 72 hours after application of the gel.

[7] = 12 hr after percutaneous Z-[3H]-4-hydroxy tamoxifen
[8] = 24 hours after percutaneous [3H]-4-hydroxy tamoxifen
[9] = 24 hr after percutaneous Z-[3H]-4-hydroxy tamoxifen
[10] = 36 hr after percutaneous Z-[3H]-4-hydroxy tamoxifen
[11] = Day 4 after percutaneous Z-[3H]-4-hydroxy tamoxifen
[12] = Day 7 after percutaneous Z-[3H]-4-hydroxy tamoxifen

For `CCC(=C(c1ccc(O)cc1)c1ccc(OCCN(C)C)cc1)c1ccccc1` (single isomer, unassigned) [E isomer], which “% Metabolites in Breast Tissue” value ([1]; human, in vivo) is on record?
Its value is 33%.

For `CCC(=C(c1ccc(O)cc1)c1ccc(OCCNC)cc1)c1ccccc1` [N-Desmethyl-4-Hydroxy Tamoxifen], which “% Metabolites in Breast Tissue” value [1, 7] is on record?
The value was 2%.

What about the “% of radioactivity in blood” value [1, 8] of the same compound?
Its value is 18%.

And the “% Metabolites in Breast Tissue” value [1, 9]?
The value was 4%.

And the “% Metabolites in Breast Tissue” value [1, 10]?
Its value is 14%.

And the “% Metabolites in Breast Tissue” value [1, 11]?
The value was 20%.

And the “% Metabolites in Breast Tissue” value [1, 12]?
The value was 16%.

With `CC/C(=C(\c1ccccc1)c1ccc(OCCN(C)C)cc1)c1ccccc1` [tamoxifen, reference compound] as the compound, how does the “% Metabolites in Breast Tissue” value [1, 11] read?
Its value is under 1%.

And the “% Metabolites in Breast Tissue” value [1, 12]?
Its value is 2%.

What about the “time of plateau of radioactivity in blood” value ([1]; percutaneous application) of the same compound?
The value was 2 days.

What about the “retention in the breast” value ([1]; percutaneous application to the affected breast) of the same compound?
Its value is “shorter and far weaker”.

What about the rat liver carcinogenicity [2] of the same compound?
The rat liver carcinogenicity was “potent rat liver carcinogen”.

And the initiation of apoptosis [3]?
The initiation of apoptosis was “initiates apoptosis”.

What about the “mean Ki-67 LI scores after treatment compared to the untreated group” value [4] of the same compound?
Its value is “significantly lower”.

What about the “effect on estrone sulphatase activity” value (estrone sulphatase) of the same compound?
Its value is “little or no effect”.

What does the source list for `CCC(=C(c1ccc(O)cc1)c1ccc(OCCN(C)C)cc1)c1ccccc1` [4-hydroxy tamoxifen, 1-[4-(2-N-dimethylaminoethoxy)phenyl]-1-(4-hydroxyphenyl)-2-phenylbut-1-ene]?
% of radioactivity in blood ([1]; human, in vivo): 68%; radioactivity administered that showed in the blood ([1]; human, in vivo): 0.5%; retention in the breast ([1]; human, in vivo): approximately 4 days; time of plateau of radioactivity in blood ([1]; human, in vivo): 4 to 6 days; 4-OHT concentration in Tumor, Median (min:max) ([5]; gel 0.5 mg/d): 687 pg/g; 4-OHT concentration in Tumor, Median (min:max) ([5]; gel 1.0 mg/d): 1377 pg/g; 4-OHT concentration in Tumor, Median (min:max) ([5]; gel 2.0 mg/d): 1698 pg/g; dose dependence of mean Ki-67 LI score after treatment ([4]; 0.5, 1.0, 2.0 mg/d): dose-dependent; mean Ki-67 LI scores after treatment compared to the untreated group [4]: significantly lower; potency as measured by binding affinity to estrogen receptors, compared with tamoxifen (estrogen receptors): more potency than tamoxifen; t1/2 (Range) ([6]; 1 mg/day): (58-118) hr; t1/2 (Range) ([6]; 2 mg/day): (49-101) hr; plasma concentrations after the last gel application ([6]; 72 hours after the last gel application): remained detectable; plasma concentrations of 4-hydroxy tamoxifen after a single dose ([6]; single 0.5 mg dose): did not produce detectable plasma concentrations; patients with detectable plasma concentrations (>5 pg/mL) ([6]; single dose of 1 mg): 6 of 12; plasma concentrations of 4-hydroxy tamoxifen versus typical estradiol concentrations ([6]; topical application, 0.5-2 mg/day): < 0.08 ng/mL; effect on estrone sulphatase activity (estrone sulphatase): significant inhibitory effect

With `CC/C(=C(\c1ccc(O)cc1)c1ccc(OCCN(C)C)cc1)c1ccccc1` [Z-4-hydroxy tamoxifen] as the compound, how does the “% Metabolites in Breast Tissue” value ([1]; human, in vivo) read?
The value was 32%.

For `CCC(=C(c1ccc(O)cc1)c1ccc(O)cc1)c1ccccc1` [Bisphenol], which “% Metabolites in Breast Tissue” value [1, 7] is on record?
The value was 1%.

What about the “% of radioactivity in blood” value [1, 8] of the same compound?
Its value is 11%.

What about the “% Metabolites in Breast Tissue” value [1, 9] of the same compound?
The value was 2%.

What about the “% Metabolites in Breast Tissue” value [1, 10] of the same compound?
The value was 3%.

And the “% Metabolites in Breast Tissue” value [1, 11]?
The value was 8%.

And the “% Metabolites in Breast Tissue” value [1, 12]?
The value was 8%.
